# Measured values taken from patent publication US6589916B1, “Method and composition for treating and promoting the growth of plants” (Amvac Chemical Corporation, priority 1999, dated 2003).
# Experiments:
# [1] = four hours ultraviolet light from an arc; U.S. Pat. No. 2,835,625; cited from earlier work
# [2] = system: live grass (Bermudagrass (Common, Midiron, and Ormond), Tifway II, Tifway 419, Tifdwarf, and Tifgreen 328 grasses); assay: Methyldithiocarbamate trials: spray treatment of live golf course grass plots, leaf appearance scored; type: in vivo; set-up: key to score for appearance of the grass leaves: 0: burning of leaf tissue; 1: bronzing of leaf tissue; 2: burning of the tip of the leaf tissue; 3: No burning or change in color of the leaf tissue; 4: good greening of the leaf tissue; 5: excellent greening of the leaf tissue
# Experimental: The effect of the application of methylammonium methyldithiocarbamate to live grass was determined in the following manner. Dilute aqueous solutions of three salts of the same dithiocarbamic acid derivative were prepared: methylammonium methyldithiocarbamate, sodium methyldithiocarbamate, and potassium methyldithiocarbamate. The solutions were prepared by mixing the dithiocarbamic acid derivative with water to achieve a concentration of between about 1.2 and 3.5% by weight.
# Three plots of grass of substantially equal type, quality, color, and size were selected at each of several golf courses throughout the state of Florida. The grass at these courses consisted of one or a combination of Bermudagrass (Common, Midiron, and Ormond), Tifway II, Tifway 419, Tifdwarf, and Tifgreen 328 grasses. To each of these plots one of the methyldithiocarbamate salts were applied via an ordinary above-ground spraying system in an amount equivalent to between about 0.5 to 40 lbs of methyldithiocarbamate salt per acre of soil. All applications were watered in with 1/2 inch of water within 20 minutes of treatment, which moved the dithiocarbamic acid derivative into and slightly below the root zone of the grass.
# The results of treating each plot with the methyldithiocarbamate salts were evaluated from 1 to 2 weeks after treatment by examining the appearance of the grass leaves. A score was assigned to each plot according to the following scale: 0=burning of leaf tissue; 1=bronzing of leaf tissue; 2=burning of the tip of the leaf tissue; 3=No burning or change in color of the leaf tissue; 4=good greening of the leaf tissue; 5=excellent greening of the leaf tissue. Where two values were assigned, the plot contained a substantial number of grass leaves of one score and a substantial number of the other score.
# [3] = system: Morning Glory; conditions: stated in U.S. Pat. No. 2,766,554; cited from earlier work
# [4] = 1. Grenelefe Resort, treated February 1998, evaluation 2 weeks after treatment
# [5] = 1. Grenelefe Resort, treated January 1998, evaluation 2 weeks after treatment
# [6] = 1. Grenelefe Resort, treated March 1998, evaluation 2 weeks after treatment
# [7] = 2. Long Boat Key, treated April 1998, evaluation 1 week after treatment
# [8] = 2. Long Boat Key, treated February 1998, evaluation 2 weeks after treatment
# [9] = 2. Long Boat Key, treated March 1998, evaluation 2 weeks after treatment
# [10] = 3. Indian River Club, treated April 1998, evaluation 1 week after treatment
# [11] = 3. Indian River Club, treated March 1998, evaluation 2 weeks after treatment
# [12] = 3. Indian River Club, treated May 1998, evaluation 1 week after treatment
# [13] = 4. La Cita C.C., treated June 1998, evaluation 1 week after treatment
# [14] = 4. La Cita C.C., treated March 1998, evaluation 1 week after treatment
# [15] = 4. La Cita C.C., treated September 1998, evaluation 1 week after treatment
# [16] = 5. Wellington C.C., treated April 1998, evaluation 2 weeks after treatment
# [17] = 6. Dodgertown C.C., treated April 1998, evaluation 1 week after treatment
# [18] = 6. Dodgertown C.C., treated May 1998, evaluation 1 week after treatment
# [19] = 7. Westchester C.C., treated April 1998, evaluation 1 week after treatment
# [20] = 8. President Club, treated July 1998, evaluation 1 week after treatment
# [21] = 8. President Club, treated May 1998, evaluation 1 week after treatment
# [22] = 9. Vero Beach C.C., treated June 1998, evaluation 1 week after treatment
# [23] = 10. Admirals Cove, treated July 1998, evaluation 1 week after treatment
# [24] = 11. Moorings C.C., treated August 1998, evaluation 1 week after treatment
# [25] = 12. Hawks Nest C.C., treated August 1998, evaluation 1 week after treatment
# [26] = 13. Woodmont C.C., treated June 1998, evaluation 1 week after treatment
# [27] = 13. Woodmont C.C., treated September 1998, evaluation 1 week after treatment
Compound,"score for appearance of the grass leaves [2, 4]","score for appearance of the grass leaves [2, 5]","score for appearance of the grass leaves [2, 6]","score for appearance of the grass leaves [2, 7]","score for appearance of the grass leaves [2, 8]","score for appearance of the grass leaves [2, 9]","score for appearance of the grass leaves [2, 10]","score for appearance of the grass leaves [2, 11]","score for appearance of the grass leaves [2, 12]","score for appearance of the grass leaves [2, 13]","score for appearance of the grass leaves [2, 14]","score for appearance of the grass leaves [2, 15]","score for appearance of the grass leaves [2, 16]","score for appearance of the grass leaves [2, 17]","score for appearance of the grass leaves [2, 18]","score for appearance of the grass leaves [2, 19]","score for appearance of the grass leaves [2, 20]","score for appearance of the grass leaves [2, 21]","score for appearance of the grass leaves [2, 22]","score for appearance of the grass leaves [2, 23]",other results
CC(C)OC(=O)SC(=S)N(C)C [isopropoxycarbonyl dimethyldithiocarbamate],,,,,,,,,,,,,,,,,,,,,biological activity after ultraviolet light treatment [1]: without losing any biological activity
"CNC(=S)[S-].[Na+] [SODIUM, sodium methyldithiocarbamate]",3,3,3-4,3,2,3,3,3,3-4,3-4,4,4,3,3,3-4,3,4,4,3-4,3-4,"score for appearance of the grass leaves [2, 24]: 4; score for appearance of the grass leaves [2, 25]: 4; score for appearance of the grass leaves [2, 26]: 4; score for appearance of the grass leaves [2, 27]: 4"
"CNC(=S)[S-].[K+] [POTASSIUM, potassium methyldithiocarbamate]",1,0,0-1,1-2,1,1-2,0-1,1,1-2,1,2,2,1,0,1-2,1,2-3,0,1,1-2,"score for appearance of the grass leaves [2, 24]: 1; score for appearance of the grass leaves [2, 25]: 0; score for appearance of the grass leaves [2, 26]: 1-2; score for appearance of the grass leaves [2, 27]: 2-3"
"CN.CNC(=S)S [METHYL AMMONIUM, methylammonium methyldithiocarbamate]",3-4,4,4,4,4,4,4,4,4,5,5,5,5,4,4,4,5,5,4-5,4,"eradication of Morning Glory [3]: excellent eradicator of Morning Glory; score for appearance of the grass leaves [2, 24]: 5; score for appearance of the grass leaves [2, 25]: 5; score for appearance of the grass leaves [2, 26]: 5; score for appearance of the grass leaves [2, 27]: 5; appearance of the grass leaf tissue, in words ([2]; Grenelefe Resort, February): improved only marginally in color; appearance of the grass leaf tissue, summary in words ([2]; all treated areas of Table 2): either good or excellent greening of the leaf tissue; results compared with potassium methyldithiocarbamate ([2]; all trials of Table 2): far better results than the potassium methyldithiocarbamate; results compared with sodium methyldithiocarbamate ([2]; all trials of Table 2): better results than the sodium methyldithiocarbamate"
